# Source: patent publication US9498505B2, “Embelia concinna extract comprising flavonoids in cosmetic and pharmaceutical compositions” (BAYER CONSUMER CARE AG, priority 2012, dated 2016)
# “And” between values parts separate entries of the source, which are not always exact repeats. Equal entries are not always repeated.
# Key:
# [1] = test system: human neutrophils; assay: LTB4 release by neutrophils stimulated with opsonised zymosan (ELISA); assay type: cell-based
# Experimental: (§1) The purpose of this study is the evaluation of the dry Embelia extract on the production of LTB4 (leucotriens B4) and PGE-2 (prostaglandin E-2) in human neutrophils. Venous blood from healthy donors was collected into tubes containing anticoagulant and sedimented with Dextran (Dextran T500). The supernatant was layered on Ficoll-Hypaque (density 1,077) and centrifuged at 400 g for 20 min. The cell pellet was washed in Tyrode (in mM: NaCl 137; KCl 2.6; glucose 5.6; HEPES 4.2; pH 7.4). Contaminating red blood corpuscules were lyzed. The cells were resuspended at 2.106 cells/ml in the Tyrode buffer supplemented with CaCl2 and MgCl2 (1.3 and 1 mM, respectively). Cells (2.106 cells/ml) were incubated at 37° C. in the presence or absence of the products to be tested during 15 min and then stimulated with opsonised zymosan (1 mg/ml) during 10 min. LTB4 assay was performed using a kit ELISA (Thermo Fisher ref. EHL LTB4). The quantity of LTB4 was expressed in pg/ml. PGE2 assay was performed using a kit ELISA (Assay designs ref 900-001 and SPIBIO ref 514010). The quantity of PGE2 was expressed in pg/ml. Data represent the means of values measured in one supernatant (non stimulated cells) or three supernatants (stimulated cells). Each measurement was assessed in duplicate. The means of the data were compared to the control condition (Student's t test-comparison of means—statistical significance at 95% if p<0.05* and at 99% if p<0.01**). The percentage of inhibition was calculated as follows: % inhibition=100×[(LTB4 treated with ECC (stimulated)/LTB4 control (stimulated)×100]
# [2] = test system: sensory neurons from dorsal root ganglia; assay: Substance P release induced by capsaicin in sensory neurons (ELISA); assay type: cell-based, newborn Wistar rat
# Experimental: (§2) FIG. 3: Evaluation by Elisa assay of substance P release. Protocol: in vitro test on sensory neurons, sensory neurons from dorsal root ganglia of newborn Wistar rat, pre-treatment with Embelia extract for 30 min, stimulation with capsaicin (0.3 μM) for 30 min, tested vs capsazepine (30 μM) as standard reference.
# (§3) Test was performed with liquid Embelia extract according to example 1 to measure its activity on release of substance P or CGRP induced by capsaicin in sensory neurons models. Cells were isolated from dorsal root ganglia of newborn Wistar rat. Cells were cultured at 37° C., 5% CO2 and culture medium concerned DMEM-Ham F12 supplemented with N2 complement 1%, antibiotics, L-glutamine 2 mM, nerve growth factor beta 20 ng/ml, neutrophin 5 ng/ml.
# (§4) Sensory neurons were then seeded in culture medium containing or not containing (control) the test compound or the reference (capsazepine at 30 μM) and cells were pre-incubated for 30 minutes. Cells were then stimulated or not stimulated (non-stimulation control) with capsaicin (a pungent and irritating agent from hot chili pepper) at 0.3 μM and incubated for 30 minutes. All experimental conditions were performed in n=3. At the end of incubation, the quantity of neuromediators (Substance P or CGRP) in culture supernatants was measured using respective ELISA kit according to the supplier's instructions. The inter-group comparisons were performed by Student's t-test for data management.
# (§5) Results are expressed in % according to the following formulas: […]
# [3] = test system: sensory neurons from dorsal root ganglia; assay: CGRP release induced by capsaicin in sensory neurons (ELISA); assay type: cell-based, newborn Wistar rat
# Experimental: as §2, with “FIG. 4:” for “FIG. 3:”, “of CGRP” for “of substance P”, “neurons, Sensory” for “neurons, sensory”
# as §3, §4, §5
# [4] = test system: sensory neurons from dorsal root ganglia; assay: Viability (MTT) of sensory neurons; assay type: cell-based, newborn Wistar rat; details: Capsazepine 30 μM
# Experimental: A preliminary cytotoxicity test to select doses for further assay was performed with viability test (MMT assay).
# [5] = test system: human basophils (KU812 cell line); assay: Histamine release from KU812 basophils after CP48/80-induced degranulation (ELISA); assay type: cell-based
# Experimental: FIG. 1: Evaluation by Elisa assay of histamine release after induced basophils degranulation. Protocol: in vitro test on human basophils (KU812 cell line), pre-treatment with Embelia extract for 20 min, stimulation with CP48/80 (10 μg/ml) for 20 min, tested vs cromoglycate (10 nM) as standard reference. Test was performed on liquid Embelia extract according to example 1 to measure its activity on degranulation of human basophils (KU812 cell line) stimulated with CP48/80. Effects on degranulation were evaluated by measuring histamine release after stimulation. Cells were cultured at 37° C., 5% CO2 and culture medium concerned EBSS supplemented with CaCl2 1.8 mM, MgCl2 0.8 mM and Bovine serum albumine (BSA) 0.1%. KU812 cells were then seeded in culture medium containing or not (control) the test compound or the reference (cromoglycate at 10 mM) and cells were pre-incubated for 20 minutes. Cells were then stimulated or not (non-stimulated control) with histamine release inducer CP48/80 at 10 μg/ml and incubated for 20 minutes. All experimental conditions were performed in n=3. At the end of incubation, the quantity of histamine in culture supernatants was measured using an ELISA kit according to the supplier's instructions. The inter-group comparisons were performed by Student's t-test for data management. Results are expressed in % according to the following formulas: [formula] [formula]
# [6] = test system: mast cells (Peritoneal cells from Wistar rat including ~50% mast cells); assay: Histamine release from mast cells after CP48/80-induced degranulation (ELISA); assay type: cell-based
# Experimental: FIG. 2: Evaluation by Elisa assay of histamine release after induced mast cells degranulation. Protocol: in vitro test on mast murine cells, peritoneal cells from Wistar rat including ˜50% mast cells, re-treatment with Embelia extract for 15 min, stimulation with CP48/80 (10 μg/ml) for 20 min, tested vs cromoglycate (10 nM) as standard reference. Test was performed with liquid Embelia extract according to example 1 comprising 7.3% dry matter to measure its activity on degranulation of mast cells (Peritoneal cells from Wistar rat including ˜50% mast cells) stimulated with CP48/80. Effects on degranulation were evaluated by measuring histamine release after stimulation. Cells were cultured at 37° C., 5% CO2 and culture medium concerned EBSS supplemented with CaCl2 1.8 mM, MgCl2 0.8 mM and Bovine serum albumine (BSA) 0.1%. Mast cells were seeded in culture medium containing or not containing (control) the test compound or the reference (cromoglycate at 10 mM) and cells were pre-incubated for 20 minutes. Cells were then stimulated or not stimulated (non-stimulation control) with histamine release inducer CP48/80 at 10 μg/ml and incubated for 20 minutes. All experimental conditions were performed in n=3. At the end of incubation, the quantity of histamine in culture supernatants was measured using an ELISA kit according to the supplier's instructions. The inter-group comparisons were performed by Student's t-test for data management. Results are expressed in % according to the following formulas: [formula]
# [7] = test system: human neutrophils; assay: PGE2 release by neutrophils stimulated with opsonised zymosan (ELISA); assay type: cell-based; details: for PGE2: Indomethacin 1 μM
# Experimental: as §1, with “p<0.01**).” for “p<0.01**). The percentage of inhibition was calculated as follows: % inhibition=100×[(LTB4 treated with ECC (stimulated)/LTB4 control (stimulated)×100]”
# [8] = Capsazepine 30 μM, capsaicin (0.3 μM)
# [9] = Rattus norvegicus, Neuron, Capsazepine 30 μM, capsaicin (0.3 μM)
# [10] = individual values, Capsazepine 30 μM, capsaicin (0.3 μM)
# [11] = Cromoglycate 10 mM, CP48/80 at 10 μg/ml
smiles,measurement,setting,value
C[C@H]1[C@H](C)CC[C@]2(C)CC[C@]3(C)C(=CC[C@@H]4[C@@]5(C)CC[C@@H](O)[C@](C)(C(=O)O)[C@@H]5CC[C@]43C)[C@H]12 [Boswellic acid],inhibition at 10 µg/mL,"[1]; Homo sapiens, Neutrophil, Boswellic acid 10 μg/ml, positive control",45%
Oc1cc2c(cc1O)CN(C(=S)NCCc1ccc(Cl)cc1)CCC2 [Capsazepine],% Stimulated Control (%),[2]; [8],9%
same,Mean Substance P,[2]; [8],23 pg/mL
same,inhibition at 30 µM,[2]; [9],99%
same,effect on capsaicin-stimulated substance P release,[2]; capsazepine 30 μM,significantly inhibited this effect
same,Substance P,[2]; [10],23 pg/mL
same,Mean CGRP,[3]; [8],642 pg/mL
same,Stimulated Control (%),[3]; [8],39%
same,inhibition at 30 µM,[3]; [9],64%
same,effect on capsaicin-stimulated CGRP release,[3]; capsazepine 30 μM,significantly inhibited this effect
same,CGRP,[3]; [10],671 pg/mL and 698 pg/mL and 557 pg/mL
same,Viability (MTT) % Stimulated Control,[4]; Table 6 (substance P experiment),96%
same,Viability (MTT) Stimulated Control (%),[4]; Table 7 (CGRP experiment),114%
O=C(O)c1cc(=O)c2c(OCC(O)COc3cccc4oc(C(=O)O)cc(=O)c34)cccc2o1 [Cromoglycate],Inhibition (%),[5]; [11],42%
same,Mean Histamine,[5]; [11],29.5 nM
same,Stimulated Control (%),[5]; [11],71%
same,effect on CP48/80-stimulated histamine release,[5]; cromoglycate 10 mM,significantly inhibited this effect
same,Histamine,"[5]; individual values, Cromoglycate 10 mM, CP48/80 at 10 μg/ml",32.3 nM and 27.0 nM and 29.0 nM
same,Inhibition (%),[6]; [11],81%
same,Mean Histamine,[6]; [11],11.7 µM
same,Stimulated Control (%),[6]; [11],20%
same,effect on CP48/80-stimulated histamine release,[6]; cromoglycate 10 mM,significantly inhibited this effect
COc1ccc2c(c1)c(CC(=O)O)c(C)n2C(=O)c1ccc(Cl)cc1 [Indomethacin],inhibition of PGE2 release,"[7]; Indometacin 1 μM, positive control",51%
same,PGE2,[7]; (NS) not stimulated,60 pg/mL
same,PGE2,[7]; (S) stimulated with opsonised zymosan,77.0 pg/mL
Cc1ncc([N+](=O)[O-])n1CCO [Metronidazole],inhibition at 5 µg/mL,"[1]; Homo sapiens, Neutrophil, metronidazole 5 μg/ml, positive control",100%
same,LTB4,"[1]; Metronidazole (10 μg/ml), (S) stimulated with opsonised zymosan",530 pg/mL
